The source of these data is article PMC10115881, “Disrupting the α-synuclein-ESCRT interaction with a peptide inhibitor mitigates neurodegeneration in preclinical models of Parkinson’s disease” (Nature Communications, 2023).

This assay relates to A53T a-syn or EV rats. Nature of the assay: AAV-A53T a-syn rat model, low titer. Type of assay: in vivo. From the text:
Third, we used a preclinical rat model of PD in which SN degeneration is induced by AAV vector-mediated expression of human mutant A53T a-syn[18],[45]–[48] (Fig. 5A). […] (Fig. 5B, C). […] Furthermore, overexpression of A53T a-syn was associated with a reduction in LAMP1 positive puncta in the SN which was restored with PDpep1.3 (Figs. 5E, S5E). […] Forelimb asymmetry in the cylinder test is a behavioral impairment associated with SN degeneration which models bradykinesia, the cardinal motor abnormality in PD[49].
Adult female Sprague-Dawley rats (250–280 g; Envigo) were pair-housed in cages with wood bedding and had access to food and water ad libitum. The animal colony was maintained in a regular 12 h light/dark cycle. All procedures were approved by the University Health Network Animal Care Committee in accordance with guidelines and regulations set by the Canadian Council on Animal Care (AUP #3818).
Animals were secured in a stereotactic frame under isoflurane/oxygen anesthesia and ketoprofen (5 mg/kg) analgesia. The surgical site was shaved and sterilized with iodine/betadine prior to making a 2 cm incision along the midline. The scalp was exposed and a unilateral injection targeting the SN was performed at coordinates AP −5.2 mm, ML −2 mm and DV −7.5 mm with respect to the bregma as a point of reference. […]
Immunofluorescence staining for a-syn, pS129 a-syn, TH, and LAMP1 was performed by washing free-floating sections with PBS-T (0.1% Tween-20 or 0.2% Triton-X-100) three times for 10 min each at room temperature. […] Sections were then mounted onto glass slides and allowed to dry and then Dako fluorescence mounting medium (Agilent) was applied, followed by coverslips.
Confocal images of immunofluorescent staining of midbrain sections were processed using HALO software (Indica Labs), which is a well validated tool for automatic quantification of neurons in brain tissue sections[70]–[72]. […] Levels of total a-syn were assessed in this ROI by measuring the area and intensity of anti-a-syn staining. […]

As to DEEIERQLKALG [PDpep1.3], the “Effect on LAMP1 positive puncta in SN” value is listed as “restored” and the “Effect on total a-syn positive area in SN” value is “significant reduction in total a-syn positive area in the SN”. Also, for the setting “n = 5–7 rats/group”, the “a-syn mean fluorescence intensity in TH+ and GFP+ SN cells” value amounted to 0.335 ± 0.025 RFU.
